From patent publication US20060149100A1, “Process for separating and recovering 3-hydroxypropionic acid and acrylic acid” (priority 2003, published 2006)

Columns and labels:
[1] = Extraction of acrylic acid and 3-hydroxypropionic acid from aqueous stock solutions using various extractants; settings: 22° C.; for Partition Coefficient, D AA / Partition Coefficient, D 3HP: extractant phase/aqueous phase
From the text: In this Example, there were utilized five (5) aqueous stock solutions. The aqueous stock solutions comprise 3-hydroxypropionic acid and acrylic acid. In each of the five aqueous stock solutions, the concentration of 3-hydroxypropionic acid is approximately two times higher than the concentration of the acrylic acid.
In carrying out the following extractions of 3-hydroxypropionic acid and acrylic acid from aqueous stock solutions comprising 3-hydroxypropionic acid and acrylic acid, the following organic extractants were used: • a. Decanol • b. Methyl isobutyl ketone (MiBK) • c. Isopropyl ether • d. Methyl acrylate • e. Methyl propionate • f. Methylene chloride (CH2Cl2) • g. Toluene • h. Isopropyl acetate • i. Ethyl acetate • j. 50/50 wt % Tributyl phosphate (TBP) and ISOPAR-K isoparaffinic hydrocarbon available from Exxon Mobil Corporation The extraction procedure utilized in the Examples herein for separating and recovering 3-hydroxypropionic acid and acrylic acid from aqueous solutions comprising 3-hydroxypropionic acid and acrylic acid is set forth below.
1. To a 15 ml centrifuge tube 5 ml of an acid stock solution and an extractant were added. Masses of the empty centrifuge tube, the aqueous solution and extractant were recorded.
2. The tube was placed on a platform shaker and the contents in the tube were mixed at 230 rpm for 30 minutes at 22° C. (rpm designates revolutions per minute).
3. At the end of mixing, the tube was centrifuged at 4500 rpm for 5 minutes.
4. The volumes of the aqueous and extractant phases in the tube were recorded.
5. The aqueous phase was separated from the extractant phase and the masses of both phases were recorded.
6. The acrylic acid and the 3-hydroxypropionic acid in the aqueous solution were analyzed by HPLC.
7. The concentrations of acrylic acid and 3-hydroxypropionic acid in the organic extractant were calculated by subtracting the concentrations of acrylic acid and 3-hydroxypropionic acid in the aqueous phase from the initial concentration in the stock solution.

[2] = Distillation of organic extractant from acrylic acid solution in the presence of water; format: physicochemical; settings: distillation at about 100 mm Hg, room temperature; 18.5 g isopropyl ether, 3 g acrylic acid, 9 g water
Method: In this Example, there is shown the process for separating and recovering acrylic acid from a solution comprising acrylic acid and an organic extractant that has a boiling point lower than 100° C. The process involves distillation of the solution, in the presence of water, to distill the organic extractant having a boiling point lower than 100° C., resulting in an aqueous acrylic acid solution.
More particularly, 18.5 grams of isopropyl ether, 3 grams of acrylic acid, and 9 grams of distilled water were introduced into a 100 ml round bottom flask. The organic extractant, isopropyl ether, that has a boiling point of 68° C. at ambient temperature, was then distilled from the solution. The distillation of the isopropyl ether organic extractant, was achieved by applying to the flask, containing the solution of acrylic acid, organic extractant and water, a reduced pressure of about 100 mm Hg, at room temperature (about 20-24° C.). The distillation was completed in about 5 minutes. The resulting isopropyl ether distillate that was collected, and the remaining aqueous solution in the flask, were weighed, and the concentration of acrylic acid in both the isopropyl ether distillate and in the aqueous solution, were determined by means of titration. The amount of acrylic acid that remained in the flask as the aqueous solution was 91%. […]

[3] = Aqueous Stock Solution No. 1 (0.67 wt % AA, 1.34 wt % 3HP)
[4] = Aqueous Stock Solution No. 5 (12.51 wt % AA, 25.05 wt % 3HP)
[5] = Aqueous Stock Solution No. 2 (3.33 wt % AA, 6.67 wt % 3HP)
[6] = Aqueous Stock Solution No. 3 (6.67 wt % AA, 13.34 wt % 3HP)
[7] = Aqueous Stock Solution No. 4 (9.99 wt % AA, 19.98 wt % 3HP)

ClCCl [CH2Cl2, Methylene chloride]
Acid in Aqueous Phase, wt % 3HP [1, 3]: 1.39 wt %
Acid in Aqueous Phase, wt % AA [1, 3]: 0.61 wt %
Acid in Extractant Phase, wt % AA [1, 3]: 0.04 wt %
Partition Coefficient, D AA [1, 3]: 0.06
Acid in Aqueous Phase, wt % 3HP [1, 4]: 25.05 wt %
Acid in Aqueous Phase, wt % AA [1, 4]: 7.84 wt %
Acid in Extractant Phase, wt % 3HP [1, 4]: 0.53 wt %
Acid in Extractant Phase, wt % AA [1, 4]: 3.72 wt %
Separation Factor, S AA/3HP [1, 4]: 22.45
Partition Coefficient, D 3HP [1, 4]: 0.02
Partition Coefficient, D AA [1, 4]: 0.48

CCCCCCCCCCO [Decanol]
Acid in Aqueous Phase, wt % 3HP [1, 3]: 1.37 wt %
Acid in Aqueous Phase, wt % AA [1, 3]: 0.31 wt %
Acid in Extractant Phase, wt % 3HP [1, 3]: 0.03 wt %
Acid in Extractant Phase, wt % AA [1, 3]: 0.47 wt %
Separation Factor, S AA/3HP [1, 3]: 77.18
Acid in Aqueous Phase, wt % 3HP [1, 4]: 25.90 wt %
Acid in Aqueous Phase, wt % AA [1, 4]: 5.94 wt %
Acid in Extractant Phase, wt % 3HP [1, 4]: 3.21 wt %
Acid in Extractant Phase, wt % AA [1, 4]: 8.20 wt %
Separation Factor, S AA/3HP [1, 4]: 11.13

CCOC(C)=O [Ethyl Acetate, Ethyl acetate, reference compound]
Acid in Aqueous Phase, wt % 3HP [1, 3]: 1.13 wt %
Acid in Aqueous Phase, wt % AA [1, 3]: 0.20 wt %
Acid in Extractant Phase, wt % 3HP [1, 3]: 0.20 wt %
Acid in Extractant Phase, wt % AA [1, 3]: 0.59 wt %
Separation Factor, S AA/3HP [1, 3]: 16.55
Acid in Aqueous Phase, wt % 3HP [1, 5]: 5.77 wt %
Acid in Aqueous Phase, wt % AA [1, 5]: 0.97 wt %
Acid in Extractant Phase, wt % 3HP [1, 5]: 1.21 wt %
Acid in Extractant Phase, wt % AA [1, 5]: 2.87 wt %
Separation Factor, S AA/3HP [1, 5]: 14.18
Acid in Aqueous Phase, wt % 3HP [1, 6]: 11.38 wt %
Acid in Aqueous Phase, wt % AA [1, 6]: 2.02 wt %
Acid in Extractant Phase, wt % 3HP [1, 6]: 3.09 wt %
Acid in Extractant Phase, wt % AA [1, 6]: 5.36 wt %
Separation Factor, S AA/3HP [1, 6]: 9.79
Acid in Aqueous Phase, wt % 3HP [1, 7]: 17.08 wt %
Acid in Aqueous Phase, wt % AA [1, 7]: 3.18 wt %
Acid in Extractant Phase, wt % 3HP [1, 7]: 5.17 wt %
Acid in Extractant Phase, wt % AA [1, 7]: 7.53 wt %
Separation Factor, S AA/3HP [1, 7]: 7.81
Acid in Aqueous Phase, wt % 3HP [1, 4]: 21.16 wt %
Acid in Aqueous Phase, wt % AA [1, 4]: 4.22 wt %
Acid in Extractant Phase, wt % 3HP [1, 4]: 8.68 wt %
Acid in Extractant Phase, wt % AA [1, 4]: 8.07 wt %
Separation Factor, S AA/3HP [1, 4]: 4.66

CC(=O)OC(C)C [Isopropyl Acetate, Isopropyl acetate]
Acid in Aqueous Phase, wt % 3HP [1, 3]: 1.28 wt %
Acid in Aqueous Phase, wt % AA [1, 3]: 0.24 wt %
Acid in Extractant Phase, wt % 3HP [1, 3]: 0.06 wt %
Acid in Extractant Phase, wt % AA [1, 3]: 0.52 wt %
Separation Factor, S AA/3HP [1, 3]: 43.36
Partition Coefficient, D 3HP [1, 3]: 0.05
Partition Coefficient, D AA [1, 3]: 2.19
Acid in Aqueous Phase, wt % 3HP [1, 4]: 25.35 wt %
Acid in Aqueous Phase, wt % AA [1, 4]: 4.42 wt %
Acid in Extractant Phase, wt % 3HP [1, 4]: 3.82 wt %
Acid in Extractant Phase, wt % AA [1, 4]: 8.95 wt %
Separation Factor, S AA/3HP [1, 4]: 13.43
Partition Coefficient, D 3HP [1, 4]: 0.15
Partition Coefficient, D AA [1, 4]: 2.02

CC(C)OC(C)C [Isopropyl Ether, Isopropyl ether]
Acid in Aqueous Phase, wt % 3HP [1, 3]: 1.30 wt %
Acid in Aqueous Phase, wt % AA [1, 3]: 0.36 wt %
Acid in Extractant Phase, wt % 3HP [1, 3]: 0.04 wt %
Acid in Extractant Phase, wt % AA [1, 3]: 0.44 wt %
Separation Factor, S AA/3HP [1, 3]: 40.59
Acid in Aqueous Phase, wt % 3HP [1, 4]: 25.72 wt %
Acid in Aqueous Phase, wt % AA [1, 4]: 5.92 wt %
Acid in Extractant Phase, wt % 3HP [1, 4]: 1.85 wt %
Acid in Extractant Phase, wt % AA [1, 4]: 9.79 wt %
Separation Factor, S AA/3HP [1, 4]: 22.91
amount of acrylic acid that remained in the flask as the aqueous solution [2]: 91%
amount of acrylic acid that was co-distilled with the extractant [2]: about 7%

C=CC(=O)OC [Methyl Acrylate, Methyl acrylate]
Acid in Aqueous Phase, wt % 3HP [1, 3]: 1.24 wt %
Acid in Aqueous Phase, wt % AA [1, 3]: 0.25 wt %
Acid in Extractant Phase, wt % 3HP [1, 3]: 0.07 wt %
Acid in Extractant Phase, wt % AA [1, 3]: 0.45 wt %
Separation Factor, S AA/3HP [1, 3]: 31.01
Partition Coefficient, D 3HP [1, 3]: 0.06
Partition Coefficient, D AA [1, 3]: 1.82
Acid in Aqueous Phase, wt % 3HP [1, 4]: 21.57 wt %
Acid in Aqueous Phase, wt % AA [1, 4]: 4.51 wt %
Acid in Extractant Phase, wt % 3HP [1, 4]: 6.70 wt %
Acid in Extractant Phase, wt % AA [1, 4]: 8.13 wt %
Separation Factor, S AA/3HP [1, 4]: 5.80
Partition Coefficient, D 3HP [1, 4]: 0.31
Partition Coefficient, D AA [1, 4]: 1.80

CCC(=O)OC [Methyl Propionate, Methyl propionate]
Acid in Aqueous Phase, wt % 3HP [1, 3]: 1.22 wt %
Acid in Aqueous Phase, wt % AA [1, 3]: 0.24 wt %
Acid in Extractant Phase, wt % 3HP [1, 3]: 0.06 wt %
Acid in Extractant Phase, wt % AA [1, 3]: 0.51 wt %
Separation Factor, S AA/3HP [1, 3]: 44.43
Partition Coefficient, D 3HP [1, 3]: 0.05
Partition Coefficient, D AA [1, 3]: 2.13
Acid in Aqueous Phase, wt % 3HP [1, 4]: 22.63 wt %
Acid in Aqueous Phase, wt % AA [1, 4]: 4.54 wt %
Acid in Extractant Phase, wt % 3HP [1, 4]: 5.54 wt %
Acid in Extractant Phase, wt % AA [1, 4]: 8.55 wt %
Separation Factor, S AA/3HP [1, 4]: 7.69
Partition Coefficient, D 3HP [1, 4]: 0.25
Partition Coefficient, D AA [1, 4]: 1.88

CC(=O)CC(C)C [MiBK, Methyl isobutyl ketone]
Acid in Aqueous Phase, wt % 3HP [1, 3]: 1.32 wt %
Acid in Aqueous Phase, wt % AA [1, 3]: 0.23 wt %
Acid in Extractant Phase, wt % 3HP [1, 3]: 0.03 wt %
Acid in Extractant Phase, wt % AA [1, 3]: 0.59 wt %
Separation Factor, S AA/3HP [1, 3]: 108.82
Acid in Aqueous Phase, wt % 3HP [1, 4]: 24.17 wt %
Acid in Aqueous Phase, wt % AA [1, 4]: 4.11 wt %
Acid in Extractant Phase, wt % 3HP [1, 4]: 5.46 wt %
Acid in Extractant Phase, wt % AA [1, 4]: 9.92 wt %
Separation Factor, S AA/3HP [1, 4]: 10.69

Cc1ccccc1 [Toluene]
Acid in Aqueous Phase, wt % 3HP [1, 3]: 1.42 wt %
Acid in Aqueous Phase, wt % AA [1, 3]: 0.69 wt %
Acid in Aqueous Phase, wt % 3HP [1, 4]: 26.72 wt %
Acid in Aqueous Phase, wt % AA [1, 4]: 10.57 wt %
Acid in Extractant Phase, wt % AA [1, 4]: 2.47 wt %
